The record followed here is patent US5684162A, “Leukotriene B4 antagonists” (G.D. Searle & Co., priority 1996, dated 1997).

Assay [1] relates to Human neutrophils. The assay is described as follows: Modified Boyden Chamber Chemotaxis (LTB4-induced, human neutrophils). It counts as cell-based. To be noted: Neutrophil; 3×10^-8 M LTB4, human neutrophils, 40-90 minute incubation at 37° C., pH 7.3. On the procedure:
Modified Boyden Chamber Chemotaxis
Human neutrophils were isolated from citrated peripheral blood using standard techniques of dextran sedimentation, followed by centrifugation on Histopaque® sterile solution (Sigma) or Ficoll-paque® (Pharmacia) and hypotonic lysis of erythrocytes. A final cell suspension of 3.4×10^6 neutrophils/ml of HEPES-buffered Hanks' balanced salt solution (HBSS, pH 7.3) was added to the upper well (0.8 ml) of a modified Boyden chamber (blind well). The lower well (0.2 ml), separated by a polycarbonate membrane (Nucleopore Corp.), contained HBSS or 3×10^-8 M LTB4 in the presence or absence of test compound. Following a 40-90 minute incubation at 37° C. in 5% CO2 -95% air, cells from the lower well were lysed and nuclei counted in a Model S-Plus-IV Coulter Counter. The number of neutrophils migrating into the lower chamber in the absence of chemoattractant was subtracted from the number of cells migrating in the presence of a chemoattractant. Inhibition of chemotaxis by test compounds was expressed as percent inhibition relative to uninhibited control.

Assay [2] deals with T1, LTB4 Receptor (Homo sapiens, UniProt Q15722).
T1 construct: Neutrophils were purified from venous blood of normal human donors; endogenous in cells; host or cells: human peripheral blood neutrophils (>95% pure, normal donors)
The assay is described as follows: LTB4 Receptor Binding Assay ([3H]LTB4, human neutrophils). Conditions: 0.6×10^-9 M (3H) LTB4, human neutrophils, 0° C., 45 minutes, pH 7.4. On the procedure:
Preparation of Human Neutrophils
Neutrophils were purified from venous blood of normal human donors using standard techniques of dextran sedimentation, centrifugation on Ficoll-paque® (Pharmacia) or Histopaque® sterile solution (Sigma) and hypotonic lysis of erythrocytes (Boyum, A., Isolation of Leukocytes From Human Blood: Further Observations. Scand. J. Lab. Clin. Invest., 21 (Suppl. 97): 31, 1968).
LTB4 Receptor Binding Assay
Neutrophils (4-6×10^6) in 1 ml Hanks' balanced salt solution (HBSS) containing 10 mM HEPES buffer , pH 7.4 and […] nordihydroguaiaretic acid were incubated with 0.6×10^-9 M (^3 H) LTB4 in the presence or absence of test compounds. The incubation was carried out at 0° C. for 45 minutes and terminated by adding 5 ml of ice-cold HBSS followed by rapid filtration of the incubation mixture under vacuum through GF/C glass fiber filters. The filters were further washed with 10 ml HBSS and radioactivity was determined. Specific binding was defined as the difference between total binding and nonspecific binding which was not displaced by 10^-7 M unlabeled LTB4. All data refer to specific binding.

In general, IC50 refers to the concentration at which inhibition is half-maximal.

T1 sequence (Q15722 whole entry): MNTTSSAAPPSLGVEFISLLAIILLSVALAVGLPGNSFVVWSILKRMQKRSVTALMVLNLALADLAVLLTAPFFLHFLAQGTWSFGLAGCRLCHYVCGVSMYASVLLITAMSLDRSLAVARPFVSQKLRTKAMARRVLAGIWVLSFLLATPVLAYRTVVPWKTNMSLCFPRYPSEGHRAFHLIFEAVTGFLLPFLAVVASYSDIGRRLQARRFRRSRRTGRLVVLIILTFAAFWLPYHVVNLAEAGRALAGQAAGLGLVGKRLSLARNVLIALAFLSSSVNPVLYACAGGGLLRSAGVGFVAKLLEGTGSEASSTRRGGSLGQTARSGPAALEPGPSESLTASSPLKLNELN

Take `CCCc1c(OCCCOc2ccc(C(=O)NC)c(OC)c2CC2CC2)ccc2c1OC(CCC(=O)NS(=O)(=O)c1ccccc1)CC2` (stereo not drawn) [Example 5]: the IC50 is 0.025 µM in assay [1] and 0.0021 µM in assay [2].

As for `CCCc1c(OCCCOc2ccc(C(=O)NC)c(OC)c2CC2CC2)ccc2c1OC(CCC(=O)NS(=O)(=O)c1ccc(C)cc1)CC2` (stereo not drawn) [Example 6], the 50% inhibitory concentration (IC50) worked out at 0.03 µM in assay [1] and 0.0037 µM in assay [2].

Turning to `CCCc1c(OCCCOc2ccc(C(=O)NC)c(OC)c2CC2CC2)ccc2c1OC(CCC(=O)NS(=O)(=O)c1ccccc1C)CC2` (stereo not drawn) [Example 7], the 50% inhibitory concentration (IC50) in assay [1] came out at 0.023 µM; in assay [2] it was 0.003 µM.
